The test system of series [1] is synoviocytes (HIG.82 rabbit). Nature of the series: MTT proliferation/cytotoxicity assay, synoviocytes. The series is classed as cell-based. The following applies: Oryctolagus cuniculus, read-out: inhibitory concentration that gave 50% effect on proliferation (IC50), synoviocytes. As for the experimental part: (§1) Proliferation was determined using the MTT proliferation/cytotoxicity assay.
(§2) On day one, 1500-2000 smooth muscle cells (A7r5 rat embryonic thoracic aorta) or synoviocytes (HIG.82 rabbit) were plated per well on a 96-well plate, leaving the first column free of cells (blank). The plate was placed back into the 37° C., CO2 incubator. The following day camptothecin was added at various concentrations. No drugs were added to the first column (blank) and the second column (untreated column) for control. The cells were exposed for 24, 48, and 72 hours. At the end of the exposure period, 50 μl of dimethylthiazol diphenyltetrazolium bromide salt (MTT) dissolved in media was added and allowed to incubate for 4 hours at 37° C. The medium was then aspirated and 200 μl of dimethyl sulfoxide was added. The plate was agitated for 30 minutes and the absorbance read at 562 nm. The optical density measurement was converted to number of cells using a standard plot of optical density with known number of cells and cell viability was expressed as % growth (this value is the % of the control cells).

For series [2], the system named is smooth muscle cells (A7r5 rat embryonic thoracic aorta). Kind of series: MTT proliferation/cytotoxicity assay, smooth muscle cells. The series is classed as cell-based. The following applies: read-out: inhibitory concentration that gave 50% effect on proliferation (IC50), smooth muscle cells. As for the experimental part: as §1, §2
A further series deals with human neutrophils. Kind of series: Neutrophil chemiluminescence (neutrophil activation). The series is classed as cell-based. To be noted: for IC50: read-out: IC 50, inhibition of neutrophil chemiluminescence. As for the experimental part: Freshly prepared human neutrophils were incubated with the compound followed by stimulation of the cells with either plasma opsonized CPPD crystals, the bacterial chemoattractant, fMLP or the phorbol ester, PMA. Stimulation (or activation) of the cells induced superoxide anion generation which could be measured by the emission of light (chemiluminescence). Inhibition of neutrophil function was then determined by inhibition of chemiluminescence. Hanks buffered salt solution (HBSS) pH 7.4 was used throughout the study. All chemicals were purchased from Sigma Chemical Co. (St. Louis, Mo.) unless otherwise stated. All procedures were performed at 37° C. unless otherwise stated. CPPD (triclinic) crystals were prepared and characterized as previously reported (Jackson J K et al., J Rheumatol, 24: 341-348, 1996). The size distribution of the crystals was approximately 33% less than […]. Opsonization of crystals was carried out using 50% heparinized plasma and concentrations of 50 mg of CPPD in 1 mL of 50% plasma. Crystals were incubated with diluted plasma for 30 min at 37° C., centrifuged at 1000×g, then washed in HBSS and recentrifuged. Neutrophils were prepared from freshly collected, human, citrated whole blood. Briefly, 400 mL of blood were mixed with 80 mL of 4% dextran T500 (Pharmacia LKB, Biotechnology AB Uppsala, Sweden) in HBSS and allowed to settle for 1 h. Plasma was collected continuously and 5 mL applied to 5 mL Ficoll Paque (Pharmacia) in 15 mL polypropylene tubes (Corning, N.Y.). Following centrifugation at 500×g for 30 min, the neutrophil pellets were washed free of erythrocytes by 20 s of hypotonic shock. Neutrophils were resuspended in HBSS, kept on ice and used for experiments within 3 h. Neutrophil viability and purity was always greater than 90%.
A stock solution of drug was diluted in DMSO to give various concentrations of drug. Equal volumes of these solutions were added to neutrophils at 5×10^6 cells per mL under mild vortexing to achieve final concentrations with a final DMSO concentration of 0.25%. This DMSO concentration found to have no effect on control cell responses. Cells were incubated for 15 minutes at 37° C. before addition to crystals, fMLP or PMA.
Chemiluminescence studies were performed at a cell concentration of 5×10^6 cells per mL in HBSS with CPPD (50 mg/mL). In all experiments 0.5 mL of cells were added to 25 mg of CPPD or 1 uM fMLP (and 0.5 uM cytochalasin B) or 0.5 uM PMA in 1.5 ml Eppendorf tubes. To the tubes were added 10 uL of luminol dissolved in 25% DMSO in HBSS to give a final concentration of 1 μM and the samples were mixed to initiate neutrophil activation. Chemiluminescence was monitored using an LKB Luminometer (Model 1250) at 37° C. with shaking immediately prior to measurements to resuspend the crystals. Control tubes contained cells, drug and luminol (crystals absent).

In series [3] the test system is chorioallantoic membrane of the chick embryo. Nature of the series: Angiogenesis in the chick chorioallantoic membrane (CAM assay). The series is classed as in vivo. To be noted: for number of eggs (CAM's) with antiangiogenic activity None (score 0) / number of eggs (CAM's) with antiangiogenic activity Partial (score 1-2) / number of eggs (CAM's) with antiangiogenic activity Maximal (score 3): 48 hours. The text has this: Sheets of sterile waxed paper were placed onto the window that was created in the air space and were used to prevent contamination and dehydration of the egg contents. These sheets, measuring 4 cm×4 cm, were sterilized by spraying them with 70% ethanol and allowing them to dry in the laminar flow hood. […] Using 70% ethanol and Kimwipes, the entire eggshell was wiped down to help clean and sanitize the outside of the egg. Inside a laminar flow hood, the egg was held with the blunt side up and a hole was made in the blunt end of the egg by carefully cracking the shell with the end of forceps. The shell remnants were gently removed with forceps to form a hole in the blunt end. This circular hole was made as large as 2 to 3 cm in diameter without damaging the inner membrane. Once the hole was created in the shell, the inner shell membrane (which houses the egg contents) was gently torn and removed using the forceps, taking care not to damage the chorioallantoic membrane (CAM) (which houses the yolk and developing chick embryo). The hole was then covered with the sheet of sterilized parafilm wax paper by gently stretching the parafilm and then placing it around the hole. The egg was then placed in the egg rack in the incubator (37° C.) and positioned in such a way as to prevent rotation. After 6 days each egg was removed one by one from the incubator (blunt side up), and the parafilm covering the window was removed for direct access to the CAM, which originates from the hind gut of the embryo. The drug-loaded polymer was placed onto the growing capillary bed of the CAM. The egg contents were then resealed with the parafilm sheet and placed back into the 37° C. incubator. […] The values of the avascular scale describe the following: […]

A short description of series [4]: In vitro drug release from polymeric formulations. The series is classed as physicochemical.
Where [5] appears, read: summary over all concentrations tested in PCL or PCL-MePEG pellets.
Where [6] appears, read: ethylene vinyl acetate films, PBS pH 7.4, 37° C.
Where [7] appears, read: polycaprolactone paste, PBS, 37° C.

Results on 4 molecules are retold here after patent US8883856B2, “Compositions and methods for the treatment of inflammatory diseases using topoisomerase inhibitors” (priority 2000, dated 2014).

As usually defined, the inhibition is the relative decrease from the control value, in per cent. Low values mean a response near the control, high ones a response far below the control.

Where two headings read alike, the source gives them in different places.

Take `COc1cc([C@@H]2c3cc4c(cc3[C@@H](O[C@@H]3O[C@@H]5CO[C@@H](C)O[C@H]5[C@H](O)[C@H]3O)[C@H]3COC(=O)[C@H]23)OCO4)cc(OC)c1O` [etoposide]: the IC50 in series [1] (48 hours exposure) is around 15 µM; in series [2] (A7R5, 48 hours exposure), around 15 µM. In addition, in the series with human neutrophils (Homo sapiens, Neutrophil, 10 uM), the inhibition at 10 µM came to 25%. Further, in series [3] (4.0% w/w in PCL pellet), the “number of eggs (CAM's) with antiangiogenic activity None (score 0)” value (“number of eggs (CAM's) … (score 0)” for short) is recorded as 2. Further, the “number of eggs (CAM's) with antiangiogenic activity Partial (score 1-2)” value (shortened to “number of eggs (CAM's) … (score 1-2)”) in series [3] (4.0% w/w in PCL pellet) was 5; in series [3] (8.0% w/w in PCL pellet) it was 5; in series [3] (15.0% w/w in PCL pellet) it was 9. Moreover, the “number of eggs (CAM's) with antiangiogenic activity Maximal (score 3)” value (“number of eggs (CAM's) … (score 3)” below) in series [3] (15.0% w/w in PCL pellet) is 4. In addition, the “number of CAM's showing full inhibition” value in series [3] (all etoposide pellets (4%, 8%, 15% PCL; 10% PCL-MePEG)) is given as “five”. The “inhibition of angiogenesis in the CAM, in words” value (“inhibition of angiogenesis” below) in series [3] (setting [5]) is “inhibited angiogenesis in almost all CAM's treated”. Also, the drug release profile result in series [4] (setting [6]) and in series [4] (setting [7]) was “initial burst of drug release followed by a slow sustained release” throughout.

In the case of `CC1(C)CCC2=C(O1)c1ccccc1C(=O)C2=O` [beta-lapachone], the IC50 in series [1] (48 hours exposure) is 5.6 µM; in series [2] (A7R5, 48 hours exposure) it was 6.3 µM; with human neutrophils (Homo sapiens, Neutrophil, three agonists: CPPD crystals, fMLP, PMA) it was 1 to 10 µM. For the same molecule, the “number of eggs (CAM's) … (score 0)” value in series [3] (1.0% w/w in PCL pellet) and in series [3] (4.0% w/w in PCL pellet) was 4 each time. The entries for the “number of eggs (CAM's) … (score 1-2)” value in series [3] (1.0% w/w in PCL pellet), in series [3] (4.0% w/w in PCL pellet) and in series [3] (60% in PCL pellet as printed) were 2, 11 and 10, respectively. The “number of eggs (CAM's) … (score 3)” value in series [3] (4.0% w/w in PCL pellet) stood at 6. Also, the results for the “inhibition of angiogenesis” value in series [3] (6% w/w in PCL) and in series [3] (setting [5]) were “partial to full inhibition of angiogenesis” and “inhibited angiogenesis in almost all CAM's”, respectively. The drug release profile result in series [4] (setting [6]) and in series [4] (setting [7]) was “initial burst of drug release followed by a slow sustained release” in each case.

On to `CC1=CC(=O)c2ccccc2C1=O` [menadione], for which the IC50 in series [1] (48 hours exposure) is 15 µM; in series [2] (A7R5, 48 hours exposure), 8.2 µM; with human neutrophils (Homo sapiens, Neutrophil, activation by MSUM crystals), 0.5 to 1 µg/mL. Also, the “number of eggs (CAM's) … (score 1-2)” value in series [3] (2.0% w/w in PCL pellet) is on record as “Necrosis”. Further, in series [3] (drug-loaded PCL pellets), the “generalized cytotoxicity in the CAM” value is “some evidence of necrosis in non-capillary cells and membrane thinning”. For the same molecule, the “inhibition of angiogenesis” value in series [3] (setting [5]) is on record as “partial inhibition of angiogenesis in a number of CAM's”. Also, the drug release profile entry is on record as “initial burst of drug release followed by a slow sustained release” in series [4] (polycaprolactone microspheres, PBS pH 7.4, 37° C.) and “initial burst of drug release followed by a slow sustained release” in series [4] (setting [7]).

`CC[C@@]1(O)C(=O)OCc2c1cc1n(c2=O)Cc2cc3ccccc3nc2-1` [camptothecin]: the IC50 in series [1] (48 h) is 0.065 µM; in series [2] (A7R5, 48 h) it was 1.6 µM. The “inhibition of neutrophil chemiluminescence” value in the series on human neutrophils (concentration printed as (5%)) is 2%. For the same molecule, the “number of eggs (CAM's) … (score 0)” value in series [3] (0.1% w/w in PCL pellet) was determined as 7; in series [3] (0.5% w/w in PCL pellet), 8; in series [3] (1.0% w/w in PCL pellet) it was 4; in series [3] (5.0% w/w in PCL pellet), 3. Moreover, the “number of eggs (CAM's) … (score 1-2)” value in series [3] (0.1% w/w in PCL pellet) stood at 1; in series [3] (0.5% w/w in PCL pellet) it was 12; in series [3] (1.0% w/w in PCL pellet) it was 6; in series [3] (5.0% w/w in PCL pellet), 20. Moreover, the “inhibition of angiogenesis” value in series [3] (0.5% (w/w to PCL)) is “strong evidence of inhibition of angiogenesis”; in series [3] (setting [5]), “extensive inhibition of angiogenesis”. The “number of eggs (CAM's) … (score 3)” value in series [3] (0.5% w/w in PCL pellet) is recorded as 2; in series [3] (5.0% w/w in PCL pellet), 9. The “number of CAM's with full or partial inhibition” value in series [3] (5% (w/w to PCL)) came out at 29. Also, the “effect of addition of MePEG to the PCL on release rate” value in series [4] (10% and 20% camptothecin loaded PCL paste, 20% MePEG) is “accelerated the release rate”. For the same molecule, the drug release profile entry in series [4] (chitosan films, PBS pH 7.4, 37° C.) is “initial burst of drug release followed by a slow sustained release”; in series [4] (setting [6]), “initial burst of drug release followed by a slow sustained release”; in series [4] (poly(L-lactic acid) microspheres, PBS pH 7.4, 37° C.), “initial burst of drug release followed by a slow sustained release”; in series [4] (setting [7]), “initial burst of drug release followed by a slow sustained release”; in series [4] (triblock copolymer/MePEG paste, PBS pH 7.4 with n-octanol, 37° C.) it was “initial burst of drug release followed by a slow sustained release”.
